These molecules were tested on full-length human prolyl-4-hydroxylase domain (PHD) enzymes, PHD1 and PHD2 (assay: TR-FRET assay, selectivity of compounds for PHD1 over PHD2 (ratio of Kis calculated from IC50s)). Conditions: ratio of Kis (PHD2 Ki/PHD1 Ki), Kis calculated from TR-FRET IC50s by Cheng Prussoff equation; 1 uM 2-OG.
Type: biochemical
Excerpt: Time-resolved fluorescence resonance energy transfer (TR-FRET) assay was utilized to determine the enzymatic half maximal inhibitory concentration (IC50) value of PHD inhibitors against the full-length human prolyl-4-hydroxylase domain (PHD) enzymes, PHD1 and PHD2. The TR-FRET assay was developed based on the specific binding of hydroxylated HIF-la peptide with the complex formed by VHL, EloB and EloC (VBC), to generate a fluorescent signal. Terbium (Tb)-Donor (monoclonal antibody anti-6His-Tb-cryptate Gold) and D2-acceptor (streptavidin [SA]-D2) of TR-FRET are linked to the VBC complex and to HIF-1α peptide, respectively. The VBC complex binds specifically to the HIF-1α peptide when it is hydroxylated, allowing energy transfer from TR-FRET donor to acceptor (FIG. 1).
TR-FRET Reagents. Monoclonal antibody anti-6His-Tb-cryptate Gold (catalog #61HI2TLA) and streptavidin (SA)-D2 (catalog #610SADLA) were purchased from CisBio International (Bedford, MA, USA).
N-terminus biotinylated HIF-1α C35 synthetic peptide representing amino acids 547 to 581 and including the proline 564 PHD2 hydroxylation site was purchased from California Peptide Research (Salt Lake City, UT, USA).
VBC Complex. His-tagged recombinant VHL protein, EloB, EloC complex (His-VBC) was supplied by Axxam (Milan, Italy). Recombinant human VHL (National Center for Biotechnology Information [NCBI] accession number NP_00542.1) contained a His tag at the C-terminus of amino acids 55 to 213 and is referred to as VHL-His. VHL-His was co-expressed in E. coli with full-length human EloB (NCBI accession number Q15370.1) and full-length human EloC (NCBI accession number Q15369.1) and purified by affinity chromatography on a nickel-nitrilotriacetic acid (Ni-NTA) column as the His-VBC complex. Purity (˜80%) was assessed by sodium dodecyl sulfate polyacrylamide gel electrophoresis (SDS-PAGE).
PHD1. Recombinant human PHD1 protein (catalog #81064, Lot #24717001) was purchased from Active Motif (Carlsbad, CA, USA). PHD1 was expressed in a baculovirus expression system as the full-length protein (NCBI accession number NP_542770.2) with an N-terminal FLAG tag (molecular weight 44.9 kDa). Purity (>90%) was assessed by SDS-PAGE.
PHD2. The full-length human PHD2 enzyme was produced with a baculovirus infected insect cell (BIIC) expression system by Beryllium (Bedford, MA, USA). The PHD2 construct contained amino acids 1 to 426 of PHD2 (UniProt Knowledgebase[UniProtKB]/Swiss-Prot accession number Q9GZT9.1), and a His tag and a Tobacco Etch Virus (TEV) protease cleavage site at the N-terminus. The construct was expressed in Sf9 insect cells, purified by Ni-NTA column and digested with TEV protease to remove the His tag.
Compounds were preincubated with PHD enzyme in a 10 μL reaction volume in white 384-well Optiplate microplates (catalog #6007290, Perkin Elmer, Waltham, MA, USA). For this, 5 μL compound was serially diluted with dilution buffer (50 mM HEPES [4-(2-hydroxyethyl)-1-piperazineethanesulfonic acid] pH 7.5, 50 mM sodium chloride [NaCl], 0.01% Tween-20, 0.01% purified bovine serum albumin [BSA]) and mixed with 5 μL PHD enzyme mix prepared as a 4× concentrate in the dilution buffer containing PHD enzyme (60 nM PHD1, 20 nM PHD2, 140 nM PHD3), 40 μM ferrous ammonium sulfate (FAS), 4 mM sodium (Na) ascorbate. The plates were incubated for 30 minutes at room temperature without rotation.
Five microliters of the VBC/anti-6His-Tb-cryptate Gold mix prepared as a 4× concentrate in dilution buffer containing 20 nM His-VBC, 1.32 nM monoclonal antibody anti-6His-Tb-cryptate Gold was then added. This step was followed immediately by the addition of 5 μL of the HIF-1α C35 substrate mix prepared as a 4× concentrate in the dilution buffer containing 120 nM biotin-labeled HIF-1α C35, 132 nM SA-D2, 4 μM 2-oxoglutarate (2-OG) to reach a final reaction volume of 20 μL. […]

SMILES	Selectivity of PHD1 over PHD2 [fold]
CC(C)(CNC(=O)c1ncc(-c2cccc(Oc3ccc(Cl)cc3)c2)cc1O)C(=O)O [compound 24, 3-(5-(3-(4-chlorophenoxy)phenyl)-3-hydroxypicolinamido)-2,2-dimethylpropanoic acid]	~181
CC(C)(CNC(=O)c1ncc(-c2cnc(-c3ccccc3)s2)cc1O)C(=O)O [compound 53, 3-(3-hydroxy-5-(2-phenylthiazol-5-yl)picolinamido)-2,2-dimethylpropanoic acid]	~1215
O=C(O)CCNC(=O)c1ncc(-c2ccc3ccccc3c2)cc1O [compound 62, 3-(3-hydroxy-5-(naphthalen-2-yl)picolinamido)propanoic acid]	~24
CC(C)(CNC(=O)c1ncc(-c2ccc3cc(OCc4ccc(Cl)cc4)ccc3c2)cc1O)C(=O)O [compound 27, 3-(5-(6-((4-chlorobenzyl)oxy)naphthalen-2-yl)-3-hydroxypicolinamido)-2,2-dimethylpropanoic acid]	~24
CC(C)(CNC(=O)c1ncc(-c2ccc(S(=O)(=O)N3CCCC3)cc2CO)cc1O)C(=O)O [compound 36, 3-(3-hydroxy-5-(2-(hydroxymethyl)-4-(pyrrolidin-1-ylsulfonyl)phenyl)picolinamido)-2,2-dimethylpropanoic acid]	~113
CC(C)(CNC(=O)c1ncc(-c2cccc(N)c2)cc1O)C(=O)O [compound 29, 3-(5-(3-aminophenyl)-3-hydroxypicolinamido)-2,2-dimethylpropanoic acid]	~20
COCCc1ccc(OCc2cccc(-c3cnc(C(=O)NCC(C)(C)C(=O)O)c(O)c3)c2)cc1 [compound 13, 3-(3-hydroxy-5-(3-((4-(2-methoxyethyl)phenoxy)methyl)phenyl)picolinamido)-2,2-dimethylpropanoic acid]	~6
CC(C)(CNC(=O)c1ncc(-c2cccc(NCCc3ccc(Cl)cc3)c2)cc1O)C(=O)O [compound 52, 3-(5-(3-((4-Chlorophenethyl)amino)phenyl)-3-hydroxypicolinamido)-2,2-dimethylpropanoic acid]	~31
CC(C)(CNC(=O)c1ncc(-c2cccc(COc3cccc(Cl)c3)c2)cc1O)C(=O)O [compound 11, 3-(5-(3-((3-chlorophenoxy)methyl)phenyl)-3-hydroxypicolinamido)-2,2-dimethylpropanoic acid]	~50
CC(C)(CNC(=O)c1ncc(-c2cccc(-c3ccccc3)c2)cc1O)C(=O)O [compound 9, 3-(5-([1,1′-biphenyl]-3-yl)-3-hydroxypicolinamido)-2,2-dimethylpropanoic acid]	~189
CC(C)(CNC(=O)c1ncc(-c2ccc3cnccc3c2)cc1O)C(=O)O [compound 42, 3-(3-hydroxy-5-(isoquinolin-6-yl)picolinamido)-2,2-dimethylpropanoic acid]	~197

Reference: patent US20240336568A1, “SELECTIVE PHD1 INHIBITOR COMPOUNDS, COMPOSITIONS, AND METHODS OF USE” (Akebia Therapeutics, Inc., priority 2021, published 2024)
